Measurements as given in US20180028478A1, “ANTIVIRAL COMPOSITIONS DIRECTED AGAINST THE NUCLEOPROTEIN OF INFLUENZA VIRUSES” (priority 2011, published 2018).
Several values for one entry are separate records, joined by “and”; a condition that tells them apart may be missing. Identical values can stand only once. Like-named read-outs stand apart in the source and are kept apart here.

Tests used:
Influenza A/PR8/34 virus = system: Influenza A/PR8/34 virus; parameters: species or system Balb/C mice; details: mouse, in vivo
Influenza A/WSN/33 virus = experiment: microbe, parasite or virus in culture; format: cell-based, Influenza A/WSN/33 (H1N1); details: for IC50: Influenza A virus, WSN, MDCK, read-out: IC50 decrease × 10 viral titer/control (n = 2)
H3N2 virus A/Udorn = details: MTT 24 h; A/Udorn MOI 10^−1; 100 μM

Compound | IC10 decrease × 10 viral titer/control (n = 2) (Influenza A/WSN/33 virus) | viral titer decrease, Naproxen vs Tamiflu (Influenza A/WSN/33 virus) | Viral titer Pfu/ml MDCK cells (Influenza A/WSN/33 virus; 50 μM) | IC50 (Influenza A/WSN/33 virus; 24 h) [µM] | other results
COc1ccc2cc(C(C)C(=O)O)ccc2c1 (stereo not shown) [Naproxen] | ~50 μM | viral titer decreases similarly |  |  | infectious outbreaks in the cell layer and dead cells (H1N1 WSN strain): reduced the number and the size of the infectious outbreaks; localisation of nucleoprotein (H1N1 WSN strain): has not modified the localisation of nucleoprotein; weight loss (Influenza A/PR8/34 virus): 19%; decrease factor of viral titer in lungs vs untreated infected controls (Influenza A/PR8/34 virus; ip): ~42 factor; decrease of viral titers with concentration (Influenza A/WSN/33 virus): the greater the concentration in Naproxen, the quicker the decrease of the viral titers; IC50 (Influenza A/WSN/33 virus; 48 h): ~10 µM; Protection % (H3N2 virus A/Udorn): 85 ± 2%
O=C(O)c1ccc(C=Nn2c(S)nnc2-c2ccc(Cl)cc2Cl)cc1 [compound 59] | ~30 μM |  | 5.5 ± 2.5 × 10^5 Pfu/ml | ~5 | 
CCOC(=O)C1=C[C@@H](OC(CC)CC)[C@H](NC(C)=O)[C@@H](N)C1 [Tamiflu, oseltamivir] |  | viral titer decreases similarly |  |  | decrease factor of viral titer in lungs vs untreated infected controls (Influenza A/PR8/34 virus): ~100 factor
COc1ccc(-c2nnc(S)n2N=Cc2ccc(C(=O)O)cc2)cc1 [compound 88] | No effect |  |  |  | Viral titer Pfu/ml MDCK cells (Influenza A/WSN/33 virus; 5 μM): 1-4 × 10^7 Pfu/ml
Cc1ccc(-c2nnc(S)n2/N=C/c2ccc(C(=O)O)cc2)cc1 [compound 72] | ~20 μM and ~35 μM |  | 7.6 ± 4.0 × 10^5 Pfu/ml and 3.9 ± 1.6 × 10^6 Pfu/ml | ~5 | 
